From patent US9192650B2, “Methods of inhibiting photoreceptor apoptosis by eliciting the Faim2 antiapoptotic pathway” (The Regents of the University of Michigan, priority 2011, dated 2015)
Entries after “also recorded” stand apart in the source; their conditions may differ.

Tests used:
c-Jun = experiment: Immunoblot of phosphorylation of JNK-target c-Jun (P-c-Jun) in Fas-AAb treated 661W cells; assay type: cell-based; settings: inhibitor pretreatment 1 hour before Fas-AAb
Protocol: (§1) The 661W cell line was maintained in Dulbecco's modified Eagle's medium containing 10% fetal bovine serum, 300 mg/L glutamine, 32 mg/L putrescine, 40 μL/L of β-mercaptoethanol, and 40 μg/L of both hydrocortisone 21-hemisuccinate and progesterone. The media also contained penicillin (90 units/mL) and streptomycin (0.09 mg/mL). Cells were grown at 37° C. in a humidified atmosphere of 5% CO2 and 95% air.
(§2) Retinas from experimental eyes with detachments and control eyes without detachments were dissected from the RPE-choroid, homogenized, and lysed in buffer containing 10 mM HEPES (pH 7.6), 0.5% IgEPal, 42 mM KCl, 1 mM phenylmethylsulfonyl fluoride (PMSF), 1 mM EDTA, 1 mM EGTA, 1 mM dithiothreitol (DTT), and 5 mM MgCl2 and 1 tablet of protease inhibitors per 10 mL buffer (Complete Mini; Roche Diagnostics GmbH, Madison, Wis.). 661W cells were lysed and homogenized in lysis buffer (as above). The homogenates were incubated on ice and centrifuged at 22,000 g at 4° C. for 60 minutes. The protein concentration of the supernatant was then determined (DC Protein Assay kit; Bio-Rad Laboratories, Hercules, Calif.). The protein samples were separated on SDS-polyacrylamide gels (Tris-HCl Ready Gels; Bio-Rad Laboratories, Hercules, Calif.). […] Protein bands were visualized with Ponceau S staining, and the lanes were assessed for equal loading by densitometry of entire lanes. […]

ERK = experiment: Immunoblot of ERK phosphorylation (P-ERK) in Fas-AAb treated 661W cells; assay type: cell-based; settings: inhibitor pretreatment 1 hour before Fas-AAb
Protocol: as §1, §2

caspase 8 = experiment: Luminescent caspase 8 activity assay in 661W cells; assay type: cell-based
Protocol: as §1
Caspase 8 and Caspase 3 activity were measured by a commercially available luminescent tetrapeptide cleavage assay kits (Promega, Madison, Wis.). The 661W cells were seeded in 96-well plates (Nunc, Rochester, N.Y.) at 1000-1500 cells/well for 24 hours prior to treatment or siRNA transfection. Cells were treated with 500 ng/mL of Fas-agonistic Jo2 monoclonal antibody (BD Biosciences, Franklin Lakes, N.J.). In some experiments, cells were pretreated with MEK inhibitor U0126, JNK inhibitor SP600125, or DMSO. Caspase activity was measured at various time points by incubating the cells with the pro-luminescent substrate in 96-well plates following manufacturer's instructions. Controls included untreated cells and wells with no cells. Luminescence was measured in a plate reader luminometer (Turner Biosystems, Sunnyvale, Calif.). […]

caspase 3 = experiment: Luminescent caspase 3 activity assay in 661W cells; assay type: cell-based
Protocol: as §1
(§3) Caspase 8 and Caspase 3 activity were measured by a commercially available luminescent tetrapeptide cleavage assay kits (Promega, Madison, Wis.). The 661W cells were seeded in 96-well plates (Nunc, Rochester, N.Y.) at 1000-1500 cells/well for 24 hours prior to treatment or siRNA transfection. Cells were treated with 500 ng/mL of Fas-agonistic Jo2 monoclonal antibody (BD Biosciences, Franklin Lakes, N.J.). In some experiments, cells were pretreated with MEK inhibitor U0126, JNK inhibitor SP600125, or DMSO. Caspase activity was measured at various time points by incubating the cells with the pro-luminescent substrate in 96-well plates following manufacturer's instructions. Controls included untreated cells and wells with no cells. Luminescence was measured in a plate reader luminometer (Turner Biosystems, Sunnyvale, Calif.).

661W cells = experiment: Luminescent cell viability assay, Fas-mediated cell death of 661W cells; assay type: cell-based; settings: 661W cells treated with Fas-AAb
Protocol: as §1
as §3, with “Cell viability was” for “Caspase 8 and Caspase 3 activity were”, “luminescent” for “luminescent tetrapeptide cleavage”, “kit” for “kits”, “treatment.” for “treatment or siRNA transfection.”, “Cell viability” for “Caspase activity”, “Sunnyvale” for “Sunnyvale,”

Faim2 = experiment: Immunoblot of Faim2 protein levels in 661W cells; assay type: cell-based, mouse; settings: 661W cells treated with Fas-AAb
Protocol: as §1, §2

[1] = 661W cells treated with Fas-AAb
[2] = 661W cells, 24 hours of Fas-AAb treatment

Row | SMILES | Concentration of maximal effect on Fas-AAb-dependent c-Jun phosphorylation (c-Jun) [µM] | Concentration of maximal inhibition of Fas-AAb-induced ERK phosphorylation (ERK) [µM] | Effect on Fas-AAb-induced phosphorylation of ERK (ERK; protein isolated 4 hours later) | Maximally-effective dose for increasing caspase 8 activity (caspase 8; [1]) [µM] | Caspase 8 activity in presence of inhibitor (caspase 8; [2]) | Maximally-effective dose for increasing caspase 3 activity (caspase 3; [1]) [µM] | Caspase 3 activity in presence of inhibitor (caspase 3; [2]) | Fas-AAb-mediated cell death in presence of inhibitor (661W cells) | Faim2 levels in Fas-AAb treated cells in presence of MAPK inhibitor (Faim2) | Faim2 level by densitometry (Faim2; 10 μM dose of inhibitor)
1 | Oc1c2ccccc2c2c3c(cccc13)N=N2 [SP600125] | 10 to 20 |  |  |  |  |  |  |  |  | 
2 | N#CC(=C(/N)Sc1ccccc1N)/C(C#N)=C(\N)Sc1ccccc1N [U0126] |  | 10 | effective in preventing | 10 | dose-dependent increase | 10 | dose-dependent increase | increased Fas-AAb-mediated cell death | dose-dependent inhibition; also recorded: reduced the levels of Faim2 | significant decrease
